Results as given in patent US12714721B2, “Methods of treatment of a cytokine storm” (Loma Linda University Health, priority 2020, dated 2026).

Test system: LPS-treated animals
Test: Survival study of LPS-treated animals with teriflunomide
Type: in vivo
Details: 20 mg/kg of LPS i.p. and 4 mg of teriflunomide
Experimental: A survival study was performed with sixteen animals per group of LPS-treated animals following no treatment and treatment with teriflunomide. The control group received 20 mg/kg of LPS i.p. and no treatment; whereas the teriflunomide group received 20 mg/kg of LPS and 4 mg of teriflunomide. None of the control animals lived up to 24 hours, whereas 6 of the teriflunomide treat animals lived out to 96 hours at which time they appeared normal. The P value for the difference was less than 0.0021. FIG. 20 is a graphical representation of the survival of LPS-treated animals following no treatment and treatment with teriflunomide. All of the animals were treated with 20 mg/kg of LPS i.p. Kaplan-Meier survival in response to LPS administration. Comparison of the trend of survival curve was done using the log-rank (Mantel-Cox) test (recommended), and ** p<0.01.

For `C/C(O)=C(\C#N)C(=O)Nc1ccc(C(F)(F)F)cc1` [teriflunomide], which Median survival (Kaplan-Meier) is on record?
Its Median survival is 48.00.

And the “animals that lived out to 96 hours” value (sixteen animals per group)?
Its value is 6.
